According to patent US20230382924A1, “MODULATORS OF CYSTIC FIBROSIS TRANSMEMBRANE CONDUCTANCE REGULATOR” (VERTEX PHARMACEUTICALS INCORPORATED, priority 2020, published 2023):

Legend:
Format in all cases: cell-based
CFTR [1] = biological target: T1, CFTR (Homo sapiens, UniProt P13569); experiment: Membrane Potential Dye, Enteroid Assay A; conditions: for EC50: read-out: Ent. A EC50
Outline: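 Enteroid cells were loaded with methyl oxonol membrane potential dye (plus CaCCinh-A01 and Chicago Sky Blue) for 25 min at room temperature. Chloride transport was started by switching to chloride-free gluconate stimulation solution, with fluorescence read for 15 min. Activity was expressed as % of a triple-combination CFTR modulator control (3 μM, 3 μM, 300 nM acute).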

F508del = biological target: T2, F508del (Homo sapiens, UniProt P13569, DEL508-508); experiment: 3T3 assay: membrane potential optical assay for F508del correction in NIH 3T3 cells; conditions: for Emax: NIH3T3, read-out: 3T3 Max Activity
T2 construct: expressed in transfected cells
T2 sequence (P13569 with tags, fused parts or gaps DEL508-508): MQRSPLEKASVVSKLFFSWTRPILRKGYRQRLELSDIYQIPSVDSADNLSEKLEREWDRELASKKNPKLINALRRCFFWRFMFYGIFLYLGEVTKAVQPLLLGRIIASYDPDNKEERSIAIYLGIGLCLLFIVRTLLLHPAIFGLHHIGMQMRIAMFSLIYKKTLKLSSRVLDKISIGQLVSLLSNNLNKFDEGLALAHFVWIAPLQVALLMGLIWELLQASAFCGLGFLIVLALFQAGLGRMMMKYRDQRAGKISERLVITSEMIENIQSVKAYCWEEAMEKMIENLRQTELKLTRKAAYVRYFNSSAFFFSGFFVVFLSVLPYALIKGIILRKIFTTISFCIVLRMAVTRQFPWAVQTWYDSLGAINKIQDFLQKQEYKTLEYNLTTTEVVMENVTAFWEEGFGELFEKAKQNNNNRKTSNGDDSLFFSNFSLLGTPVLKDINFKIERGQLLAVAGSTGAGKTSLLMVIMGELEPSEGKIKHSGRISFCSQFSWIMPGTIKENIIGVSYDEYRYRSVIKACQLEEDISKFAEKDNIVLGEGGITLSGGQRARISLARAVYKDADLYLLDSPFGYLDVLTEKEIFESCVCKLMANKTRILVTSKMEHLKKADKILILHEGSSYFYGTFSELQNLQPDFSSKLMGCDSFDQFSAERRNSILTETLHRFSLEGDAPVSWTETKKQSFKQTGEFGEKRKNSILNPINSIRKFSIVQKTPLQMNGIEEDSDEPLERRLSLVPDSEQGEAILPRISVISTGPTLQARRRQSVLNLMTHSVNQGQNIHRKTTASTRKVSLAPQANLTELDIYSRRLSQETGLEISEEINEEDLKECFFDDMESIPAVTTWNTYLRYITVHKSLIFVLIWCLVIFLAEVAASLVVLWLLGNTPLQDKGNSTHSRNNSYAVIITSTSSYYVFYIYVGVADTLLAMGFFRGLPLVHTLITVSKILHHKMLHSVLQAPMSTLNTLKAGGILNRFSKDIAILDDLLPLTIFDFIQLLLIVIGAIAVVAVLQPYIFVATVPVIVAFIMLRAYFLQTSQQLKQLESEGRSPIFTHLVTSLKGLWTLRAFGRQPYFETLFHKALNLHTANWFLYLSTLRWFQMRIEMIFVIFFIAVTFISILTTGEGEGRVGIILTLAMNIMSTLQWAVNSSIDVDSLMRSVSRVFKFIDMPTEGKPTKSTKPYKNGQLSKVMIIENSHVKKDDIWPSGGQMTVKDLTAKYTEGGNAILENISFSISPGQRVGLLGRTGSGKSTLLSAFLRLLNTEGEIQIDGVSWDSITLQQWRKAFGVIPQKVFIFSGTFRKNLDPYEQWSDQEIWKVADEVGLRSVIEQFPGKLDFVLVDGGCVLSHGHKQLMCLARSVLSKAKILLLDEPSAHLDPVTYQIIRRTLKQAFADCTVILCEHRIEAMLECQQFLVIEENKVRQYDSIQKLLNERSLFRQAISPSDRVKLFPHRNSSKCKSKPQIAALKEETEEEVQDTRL
From the text: 1. Membrane Potential Optical Methods for Assaying F508del Modulation Properties of Compounds
The assay utilizes fluorescent voltage sensing dyes to measure changes in membrane potential using a fluorescent plate reader (e.g., FLIPR III, Molecular Devices, Inc.) as a readout for increase in functional F508del in NIH 3T3 cells. The driving force for the response is the creation of a chloride ion gradient in conjunction with channel activation by a single liquid addition step after the cells have previously been treated with compounds and subsequently loaded with a voltage sensing dye.
2. Identification of Corrector Compounds
To identify correctors of F508del, a single-addition HTS assay format was developed. This HTS assay utilizes fluorescent voltage sensing dyes to measure changes in membrane potential on the FLIPR III as a measurement for increase in gating (conductance) of F508del in F508del NIH 3T3 cells. The F508del NIH 3T3 cell cultures were incubated with the corrector compounds at a range of concentrations for 18-24 hours at 37° C., and subsequently loaded with a redistribution dye. The driving force for the response is a Cl^− ion gradient in conjunction with channel activation with forskolin in a single liquid addition step using a fluorescent plate reader such as FLIPR III.
Bath Solution #1: (in mM) NaCl 160, KCl 4.5, CaCl2) 2, MgCl2 1, HEPES 10, pH 7.4 with NaOH.
Chloride-free bath solution: Chloride salts in Bath Solution #1 (above) are substituted with gluconate salts.
NIH3T3 mouse fibroblasts stably expressing F508del are used for optical measurements of membrane potential. The cells are maintained at 37° C. in 5% CO2 and 90% humidity in Dulbecco's modified Eagle's medium supplemented with 2 mM glutamine, 10% fetal bovine serum, 1×NEAA, b-ME, 1×pen/strep, and 25 mM HEPES in 175 cm^2 culture flasks. For all optical assays, the cells were seeded at ˜20,000/well in 384-well matrigel-coated plates. For the correction assays, the cells are cultured at 37° C. with and without compounds for 16-24 hours.

CFTR [2] = biological target: T1, CFTR; experiment: Membrane Potential Dye, Enteroid Assay B; conditions: Table 9; for EC50: read-out: Ent. B EC50
Outline: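 Enteroid cells loaded 25 min at room temperature with 20 μM methyl oxonol plus 30 μM CaCCinh-A01 and 30 μM Chicago Sky Blue, then switched to chloride-free gluconate buffer. Chloride transport was started by chloride-free stimulation solution, with fluorescence read for 15 min.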

[3] = NIH 3T3 cells, F508del correction

T1 sequence (P13569 with tags, fused parts or gaps DEL508-508): as above

SMILES | Ent. A Max Activity (CFTR [1]; Table 9) | EC50 (CFTR [1]; Table 9) | Ent. B Max Activity (CFTR [2]) | EC50 (CFTR [2]) | other results
Cc1cccc(C)c1-c1cc2nc(n1)NS(=O)(=O)c1cccc(c1)C(=O)NCC(C)(C)CO2 [Compound 202] |  |  |  |  | Ent. A Max Activity (CFTR [1]; Enteroid Assay A): ++ (++ is 30-60%); EC50 (CFTR [1]; Enteroid Assay A): 3 to 30 µM; EC50 (F508del; [3]): < 1 µM
Cc1cccc(C)c1-c1cc2nc(n1)NS(=O)(=O)c1cccc(c1)C(=O)NC[C@H](C1CCCCC1)O2 (stereo in doubt) [Compound 270] |  |  |  |  | Ent. A Max Activity (CFTR [1]; Table 8): + (+ is <30%); Emax (F508del; Table 8): > 60%; EC50 (F508del; Table 8): < 1 µM
Cc1cc(C(C)(C)C)ccc1[C@@H]1CNC(=O)c2cccc(c2)S(=O)(=O)Nc2nc(cc(-c3c(C)cccc3C)n2)O1 [Compound 155] |  |  |  |  | EC50 (CFTR [1]; Table 8): < 1 µM; Emax (F508del; Table 8): > 60%; EC50 (F508del; Table 8): < 1 µM
COc1cccc(C)c1-c1cc2nc(n1)NS(=O)(=O)c1cccc(c1)C(=O)N[C@H](CC(C)C)CO2 [Compound 318] |  |  |  |  | Ent. A Max Activity (CFTR [1]; Enteroid Assay A): +++ (+++ is >600%); EC50 (CFTR [1]; Enteroid Assay A): 1 to 3 µM; EC50 (F508del; [3]): < 1 µM
Cc1cccc(C)c1-c1cc2nc(n1)NS(=O)(=O)c1cccc(c1)C(=O)NC1CCCC(C1)O2 (stereo not drawn) [Compound 203] |  |  |  |  | Ent. A Max Activity (CFTR [1]; Enteroid Assay A): ++ (++ is 30-60%); EC50 (F508del; [3]): < 1 µM
Cc1ccccc1-c1cc2nc(n1)NS(=O)(=O)c1cccc(c1)C(=O)N[C@H](CC1CCCCC1)CO2 [Compound 316] |  |  |  |  | Ent. A Max Activity (CFTR [1]; Enteroid Assay A): +++ (+++ is >600%); EC50 (CFTR [1]; Enteroid Assay A): < 1 µM; EC50 (F508del; [3]): < 1 µM
Cc1cccc(C)c1-c1cc2nc(n1)NS(=O)(=O)c1cccc(c1)C(=O)NC[C@@H](c1ccc(C(C)(C)C)cn1)O2 (single isomer, unassigned) [Compound 7, 10-(5-tert-Butyl-2-pyridyl)-6-(2,6-dimethylphenyl)-2,2-dioxo-9-oxa-2λ^6-thia-3,5,12,19-tetrazatricyclo[12.3.1.14,8]nonadeca-1(18),4(19),5,7,14,16-hexaen-13-one] |  |  |  |  | Ent. A Max Activity (CFTR [1]; Table 8): +++ (+++ is >60%); EC50 (CFTR [1]; Table 8): < 1 µM; Emax (F508del; Table 8): > 60%; EC50 (F508del; Table 8): < 1 µM
Cc1cccc(C)c1-c1cc2nc(n1)NS(=O)(=O)c1cccc(c1)C(=O)N[C@H](CC1CCCCC1)[C@H](C)O2 [Compound 143] |  |  |  |  | Ent. A Max Activity (CFTR [1]; Table 8): +++ (+++ is >60%); EC50 (CFTR [1]; Table 8): < 1 µM; Emax (F508del; Table 8): > 60%; EC50 (F508del; Table 8): < 1 µM
Cc1cccc(C)c1-c1cc2nc(n1)NS(=O)(=O)c1cccc(c1)C(=O)NCC(c1ccc3c(c1)CC(C)(C)O3)O2 (stereo not drawn) [Compound 115] |  |  |  |  | EC50 (CFTR [1]; Table 8): 1 to 3 µM; Emax (F508del; Table 8): > 60%; EC50 (F508del; Table 8): < 1 µM
Cc1cccc(C)c1-c1cc2nc(n1)NS(=O)(=O)c1cccc(c1)C(=O)NC[C@@H](C1CCCCC1)O2 [Compound 269] |  |  |  |  | Emax (F508del; Table 8): > 60%; EC50 (F508del; Table 8): < 1 µM
Cc1cccc(C)c1-c1cc2nc(n1)NS(=O)(=O)c1cccc(c1)C(=O)NC[C@H](c1ccc(CCC(C)(C)C)cc1)O2 (stereo in doubt) [Compound 149] | +++ (+++ is >60%) | < 1 µM | +++ (+++ is >60%) | < 1 µM | 
CCC(C)(C)C(=O)N1C[C@H]2NC(=O)c3cccc(c3)S(=O)(=O)Nc3nc(cc(-c4c(C)cccc4C)n3)O[C@@H]2C1 [Compound 369] | +++ (+++ is >60%) | 3 to 30 µM | ++ (++ is 30-60%) |  | 
Cc1cccc(C)c1-c1cc2nc(n1)NS(=O)(=O)c1cccc(c1)C(=O)N[C@@H]1CN(CCC(C)(C)C)C[C@H]1O2 [Compound 64, (3R,7R)-5-(3,3-Dimethylbutyl)-19-(2,6-dimethylphenyl)-2-oxa-15λ^6-thia-5,8,16,18,21-pentaazatetracyclo[15.3.1.110,14.03,7]docosa-1(20),10(22),11,13,17(21),18-hexaene-9,15,15-trione] | +++ (+++ is >60%) | < 1 µM | ++ (++ is 30-60%) | < 1 µM | 
Cc1cccc(C)c1-c1cc2nc(n1)NS(=O)(=O)c1cccc(c1)C(=O)NCC(c1ccc([Si](C)(C)C)cc1)O2 (single isomer, unassigned) [Compound 17, 6-(2,6-dimethylphenyl)-2,2-dioxo-10-(4-trimethylsilylphenyl)-9-oxa-2λ^6-thia-3,5,12,19-tetrazatricyclo[12.3.1.14,8]nonadeca-1(18),4(19),5,7,14,16-hexaen-13-one] |  | < 1 µM |  | < 1 µM | 
Cc1cccc(C)c1-c1cc2nc(n1)NS(=O)(=O)c1cc(n[nH]1)C(=O)N[C@H](CC(C)C)CO2 [Compound 78, (10R)-15-(2,6-dimethylphenyl)-10-isobutyl-3,3-dioxo-12-oxa-3λ^6-thia-2,5,6,9,16,17-hexazatricyclo[11.3.1.14,7]octadeca-1(17),4(18),6,13,15-pentaen-8-one] | ++ (++ is 30-60%) | 3 to 30 µM | ++ (++ is 30-60%) | 3 to 30 µM | 
Cc1cccc(C)c1-c1cc2nc(n1)NS(=O)(=O)c1cccc(c1)C(=O)N[C@@H]1CN(CCC3(C(F)(F)F)CC3)C[C@H]1O2 [Compound 378] | +++ (+++ is >60%) | < 1 µM | +++ (+++ is >60%) | < 1 µM | 
Cc1cccc(C)c1-c1cc2nc(n1)NS(=O)(=O)c1cccc(c1)C(=O)N[C@@H]1CN(C3CC4(CCCCC4)C3)C[C@H]1O2 [Compound 377] | +++ (+++ is >60%) | < 1 µM | ++ (++ is 30-60%) | < 1 µM | 
Cc1cccc(C)c1-c1cc2nc(n1)NS(=O)(=O)c1cccc(c1)C(=O)NCC(c1ccc(C34CC(C3)C4)cc1)O2 (stereo not drawn) [Compound 396] | +++ (+++ is >60%) | < 1 µM | ++ (++ is 30-60%) | < 1 µM | 
Cc1cccc(C)c1-c1cc2nc(n1)NS(=O)(=O)c1cccc(c1)C(=O)N[C@@H](C(CC(C)C)c1ccccc1)CO2 (stereo in doubt) [Compound 181] | +++ (+++ is >60%) | < 1 µM | +++ (+++ is >60%) | < 1 µM | 
Cc1cccc(CC2CC2)c1-c1cc2nc(n1)NS(=O)(=O)c1cccc(c1)C(=O)N[C@H](CC(C)C)CO2 [Compound 107, (11R)-6-[2-(cyclopropylmethyl)-6-methyl-phenyl]-11-isobutyl-2,2-dioxo-9-oxa-2λ^6-thia-3,5,12,19-tetrazatricyclo[12.3.1.14,8]nonadeca-1(18),4(19),5,7,14,16-hexaen-13-one] | +++ (+++ is >60%) | < 1 µM | +++ (+++ is >60%) | < 1 µM | 
Cc1cccc(C)c1-c1cc2nc(n1)NS(=O)(=O)c1cccc(c1)C(=O)NC[C@@H](c1ccc(CCC3(C(F)(F)F)CC3)cc1)O2 [Compound 146] | +++ (+++ is >60%) | < 1 µM | +++ (+++ is >60%) | < 1 µM | 
Cc1ccc2cc1C(=O)N[C@H](CC1CCCCC1)COc1cc(-c3c(C)cccc3C)nc(n1)NS2(=O)=O [Compound 161] |  |  |  |  | EC50 (F508del; [3]): 3 to 30 µM
Cc1cccc(Cc2cccc(C)c2-c2cc3nc(n2)NS(=O)(=O)c2cccc(c2)C(=O)N[C@H](CC(C)C)CO3)c1 [Compound 170] | +++ (+++ is >60%) | < 1 µM | +++ (+++ is >60%) | < 1 µM | 
Cc1cccc(C)c1-c1cc2nc(n1)NS(=O)(=O)c1cccc(c1)C(=O)N[C@@H]1CN(C(=O)CC(C)(C)C)C[C@H]1O2 [Compound 381] | ++ (++ is 30-60%) | 3 to 30 µM | ++ (++ is 30-60%) |  | 
Cc1cccc(C)c1-c1cc2nc(n1)NS(=O)(=O)c1cccc(c1)C(=O)N[C@@H]1CN(C3CC4(CCCC4)C3)C[C@H]1O2 [Compound 56, (3R,7R)-19-(2,6-Dimethylphenyl)-5-{spiro[3.4]octan-2-yl}-2-oxa-15λ^6-thia-5,8,16,18,21-pentaazatetracyclo[15.3.1.110,14.03,7]docosa-1(20),10(22),11,13,17(21),18-hexaene-9,15,15-trione] | +++ (+++ is >60%) | < 1 µM | ++ (++ is 30-60%) | < 1 µM | 
Cc1cccc(C)c1-c1cc2nc(n1)NS(=O)(=O)c1cccc(c1)C(=O)N[C@H](CC(C)C)[C@@H](c1ccc(C(C)(C)C)cc1)O2 (single isomer, unassigned) [Compound 39] | +++ (+++ is >60%) | < 1 µM | +++ (+++ is >60%) | < 1 µM | 
